Here are results for 19 molecules from patent US12503438B2, “Compounds for the treatment of kinase-dependent disorders” (Exelixis, Inc., priority 2019, dated 2025).

Experiment [1] deals with T1, AXL (Homo sapiens, UniProt P30530).
T1 construct: endogenous in cells; host or cells: A-172 glioblastoma cells (ATCC #CRL-1620)
T1 sequence (P30530 26-894): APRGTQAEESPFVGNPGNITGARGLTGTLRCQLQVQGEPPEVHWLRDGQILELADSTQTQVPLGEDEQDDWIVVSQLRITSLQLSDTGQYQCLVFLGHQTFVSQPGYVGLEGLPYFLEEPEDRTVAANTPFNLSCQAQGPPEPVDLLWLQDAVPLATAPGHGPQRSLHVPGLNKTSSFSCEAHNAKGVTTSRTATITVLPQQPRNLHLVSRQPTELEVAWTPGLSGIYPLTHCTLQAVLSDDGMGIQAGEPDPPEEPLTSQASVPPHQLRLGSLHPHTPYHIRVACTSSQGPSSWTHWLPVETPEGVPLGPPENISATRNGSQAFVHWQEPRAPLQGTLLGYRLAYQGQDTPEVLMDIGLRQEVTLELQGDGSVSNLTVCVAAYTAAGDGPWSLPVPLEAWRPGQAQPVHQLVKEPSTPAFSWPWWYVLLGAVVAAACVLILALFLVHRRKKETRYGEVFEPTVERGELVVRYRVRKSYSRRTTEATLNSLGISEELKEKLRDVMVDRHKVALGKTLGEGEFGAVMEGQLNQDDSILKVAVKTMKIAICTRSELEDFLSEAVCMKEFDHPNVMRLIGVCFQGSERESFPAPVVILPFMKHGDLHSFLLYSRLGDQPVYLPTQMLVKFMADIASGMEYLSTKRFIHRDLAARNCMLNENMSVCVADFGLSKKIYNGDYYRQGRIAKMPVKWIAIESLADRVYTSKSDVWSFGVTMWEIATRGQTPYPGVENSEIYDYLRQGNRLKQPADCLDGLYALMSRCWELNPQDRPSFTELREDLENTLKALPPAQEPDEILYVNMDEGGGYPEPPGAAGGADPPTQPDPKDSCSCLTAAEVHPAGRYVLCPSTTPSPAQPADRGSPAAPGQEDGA
In words: AXL autophosphorylation ELISA in A-172 cells. It is filed as cell-based. The settings on record: cellular activity, Gas6-stimulated, phospho-AXL ELISA. The method, boiled down: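 Serum-starved (24 h) A-172 glioblastoma cells got an 8-point compound series (0.3% DMSO) for 1 h, then 1 μg/mL human Gas6 for 15 min. Lysate phospho-AXL quantified by ELISA against phospho-AXL standard, normalized to DMSO and reference-inhibitor controls; IC50 by 4-parameter logistic fit.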

Experiment [2] has as its target KDR (Homo sapiens, UniProt P35968). In words: Human KDR kinase assay (33P-phosphoryl transfer radiometric, KinaseProfiler). Also on record: Human KDR (residues K790-V1356, 55 nM); purchased Eurofins Pharma Discovery Services UK Limited (KinaseProfiler service). The settings on record: biochemical activity; 10 μM ATP. The protocol:
Kinase activity and compound inhibition were investigated using the ^33P-Phosphoryl transfer radiometric kinase assay, performed using the KinaseProfiler™ service of Eurofins Pharma Discovery Services UK Limited. Dose-response experiments were performed using nine compound concentrations in a 96-well microtiter plate. For each assay, all compounds were prepared to a 50× final assay concentration (50 μM) in 100% DMSO, then diluted in a half-log series, with the final top concentration at 1 μM. This working stock of the compound was added to the assay well as the first component in the reaction, followed by the remaining components as detailed in the following assay protocols below. The positive control wells (100% kinase activity) contain all components of the reaction including 2% DMSO (control for solvent effects), except the compound of interest. Blank wells contain all components of the reaction, with the reference inhibitor, staurosporine. This reference compound was used to abolish kinase activity and generated the 0% kinase activity base-line. IC50 values were calculated by nonlinear regression analysis using the sigmoidal dose-response (variable slope) curve fit on XLFit version 5.3 (ID Business Solutions).
Human KDR (residues K790-V1356, 55 nM) was incubated with 8 mM MOPS pH 7.0, 0.2 mM EDTA, 0.33 mg/mL myelin basic protein, 10 mM magnesium acetate, and 10 μM [γ-^33P-ATP]. The reaction was initiated by the addition of the Mg/ATP mix. After incubation for 40 minutes at room temperature, the reaction was stopped by the addition of phosphoric acid to a concentration of 0.5%. A reaction aliquot of 10 μL was then spotted onto a P30 filtermat and washed four times for 4 minutes in 0.425% phosphoric acid and once in methanol prior to drying and scintillation counting. Incorporated ^33P was measured using the Wallac Microbeta scintillation counter (Perkin Elmer).

Bounds are passed on as bounds.

Chain of KDR (P35968 790-1356): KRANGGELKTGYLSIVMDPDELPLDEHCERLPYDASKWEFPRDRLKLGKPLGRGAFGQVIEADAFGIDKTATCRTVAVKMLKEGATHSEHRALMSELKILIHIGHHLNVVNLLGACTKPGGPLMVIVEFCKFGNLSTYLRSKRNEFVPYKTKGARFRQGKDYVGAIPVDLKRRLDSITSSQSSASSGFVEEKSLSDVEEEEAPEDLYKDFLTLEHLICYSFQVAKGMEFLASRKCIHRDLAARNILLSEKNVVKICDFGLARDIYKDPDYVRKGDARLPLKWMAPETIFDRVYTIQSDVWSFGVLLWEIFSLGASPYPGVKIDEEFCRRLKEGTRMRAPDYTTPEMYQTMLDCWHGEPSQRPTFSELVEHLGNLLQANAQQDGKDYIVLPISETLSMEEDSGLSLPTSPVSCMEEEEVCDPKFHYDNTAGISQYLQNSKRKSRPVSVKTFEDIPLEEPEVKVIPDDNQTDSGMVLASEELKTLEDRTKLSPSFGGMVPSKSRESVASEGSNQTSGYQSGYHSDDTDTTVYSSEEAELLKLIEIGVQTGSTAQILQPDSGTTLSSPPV

Turning to `Cn1nccc1-c1ccc2c(Oc3ccc(NC(=O)C4(C(=O)Nc5ccc(F)cc5)CC4)cc3)ccnc2c1` [Compound 54, 1-N′-(4-Fluorophenyl)-1-N-[4-[7-(2-methylpyrazol-3-yl)quinolin-4-yl]oxyphenyl]cyclopropane-1,1-dicarboxamide], the IC50 in experiment [1] and in experiment [2] was 10 to 100 nM each time.

As for `O=C(Nc1ccc(F)cc1)C1(C(=O)Nc2ccc(Oc3ccnc4cc(-c5cnn(CC(F)F)c5)ccc34)cc2)CC1` [Compound 15, 1-N-[4-[7-[1-(2,2-Difluoroethyl)pyrazol-4-yl]quinolin-4-yl]oxyphenyl]-1-N′-(4-fluorophenyl)cyclopropane-1,1-dicarboxamide], the results for the IC50 in experiment [1] and in experiment [2] were at most 10 nM and 10 to 100 nM, respectively.

`Cn1ccc(-c2ccc3c(Oc4ccc(NC(=O)C5(C(=O)Nc6ccc(F)cc6)CC5)cc4)ccnc3c2)n1` [Compound 17, 1-N′-(4-Fluorophenyl)-1-N-[4-[7-(1-methylpyrazol-3-yl)quinolin-4-yl]oxyphenyl]cyclopropane-1,1-dicarboxamide]: the IC50 in experiment [1] and in experiment [2] was 10 to 100 nM in each case.

On to `Cn1cc(-c2ccc3c(Oc4ccc(NC(=O)C5(C(=O)Nc6ccc(F)cc6)CC5)cc4)ccnc3c2)cn1` [Compound 11, 1-N′-(4-Fluorophenyl)-1-N-[4-[7-(1-methylpyrazol-4-yl)quinolin-4-yl]oxyphenyl]cyclopropane-1,1-dicarboxamide], for which the IC50 in experiment [1] is at most 10 nM; in experiment [2], 10 to 100 nM.

With `O=C(Nc1ccc(F)cc1)C1(C(=O)Nc2ccc(Oc3ccnc4cc(C5CCNC5)ccc34)cc2)CC1` (centres unmarked) [Compound 83, 1-N′-(4-Fluorophenyl)-1-N-[4-(7-pyrrolidin-3-ylquinolin-4-yl)oxyphenyl]cyclopropane-1,1-dicarboxamide], the IC50 in experiment [1] lay within 100 to 300 nM; in experiment [2], 10 to 100 nM.

On to `O=C(Nc1ccc(F)cc1)C1(C(=O)Nc2ccc(Oc3ccnc4cc(-c5cnn(CCF)c5)ccc34)cc2)CC1` [Compound 14, 1-N-[4-[7-[1-(2-Fluoroethyl)pyrazol-4-yl]quinolin-4-yl]oxyphenyl]-1-N′-(4-fluorophenyl)cyclopropane-1,1-dicarboxamide], for which the IC50 was at most 10 nM in experiment [1] and 10 to 100 nM in experiment [2].

As to `Cn1ccnc1-c1ccc2c(Oc3ccc(NC(=O)C4(C(=O)Nc5ccc(F)cc5)CC4)cc3)ccnc2c1` [Compound 75, 1-N′-(4-Fluorophenyl)-1-N-[4-[7-(1-methylimidazol-2-yl)quinolin-4-yl]oxyphenyl]cyclopropane-1,1-dicarboxamide], the IC50 in experiment [1] and in experiment [2] was 10 to 100 nM throughout.

Regarding `O=C(Nc1ccc(F)cc1)C1(C(=O)Nc2ccc(Oc3ccnc4cc(-c5ccn(C(F)F)n5)ccc34)cc2)CC1` [Compound 84, 1-N-[4-[7-[1-(Difluoromethyl)pyrazol-3-yl]quinolin-4-yl]oxyphenyl]-1-N′-(4-fluorophenyl)cyclopropane-1,1-dicarboxamide], the IC50 in experiment [1] and in experiment [2] was 10 to 100 nM in each case.

As to `O=C(Nc1ccc(F)cc1)C1(C(=O)Nc2ccc(Oc3ccnc4cc(-c5cnn(C6COC6)c5)ccc34)cc2)CC1` [Compound 24, 1-N′-(4-Fluorophenyl)-1-N-[4-[7-[1-(oxetan-3-yl)pyrazol-4-yl]quinolin-4-yl]oxyphenyl]cyclopropane-1,1-dicarboxamide], the IC50 is at most 10 nM in experiment [1] and 10 to 100 nM in experiment [2].

Turning to `Cn1ncc(-c2ccc3c(Oc4ccc(NC(=O)C5(C(=O)Nc6ccc(F)cc6)CC5)cc4)ccnc3c2)n1` [Compound 86, 1-N′-(4-Fluorophenyl)-1-N-[4-[7-(2-methyltriazol-4-yl)quinolin-4-yl]oxyphenyl]cyclopropane-1,1-dicarboxamide], the IC50 in experiment [1] and in experiment [2] was 10 to 100 nM in each case.

With `Cc1noc(C)c1-c1ccc2c(Oc3ccc(NC(=O)C4(C(=O)Nc5ccc(F)cc5)CC4)cc3)ccnc2c1` [Compound 53, 1-N-[4-[7-(3,5-Dimethyl-1,2-oxazol-4-yl)quinolin-4-yl]oxyphenyl]-1-N′-(4-fluorophenyl)cyclopropane-1,1-dicarboxamide], the IC50 in experiment [1] was in the range of 100 to 300 nM; in experiment [2], 10 to 100 nM.

As to `CC(=O)N1CCC(n2cc(-c3ccc4c(Oc5ccc(NC(=O)C6(C(=O)Nc7ccc(F)cc7)CC6)cc5)ccnc4c3)cn2)CC1` [Compound 62, 1-N-[4-[7-[1-(1-Acetylpiperidin-4-yl)pyrazol-4-yl]quinolin-4-yl]oxyphenyl]-1-N′-(4-fluorophenyl)cyclopropane-1,1-dicarboxamide], the IC50 in experiment [1] is at most 10 nM; in experiment [2], 10 to 100 nM.

For the molecule `CCn1cc(-c2ccc3c(Oc4ccc(NC(=O)C5(C(=O)Nc6ccc(F)cc6)CC5)cc4)ccnc3c2)cn1` [Compound 20, 1-N-[4-[7-(1-Ethylpyrazol-4-yl)quinolin-4-yl]oxyphenyl]-1-N′-(4-fluorophenyl)cyclopropane-1,1-dicarboxamide], the IC50 in experiment [1] is at most 10 nM; in experiment [2], 10 to 100 nM.

Turning to `O=C(Nc1ccc(F)cc1)C1(C(=O)Nc2ccc(Oc3ccnc4cc(-c5ccncc5)ccc34)cc2)CC1` [Compound 26, 1-N′-(4-Fluorophenyl)-1-N-[4-(7-pyridin-4-ylquinolin-4-yl)oxyphenyl]cyclopropane-1,1-dicarboxamide], the figures for the IC50 in experiment [1] and in experiment [2] were at most 10 nM and 10 to 100 nM, respectively.

On to `CS(=O)(=O)n1cc(-c2ccc3c(Oc4ccc(NC(=O)C5(C(=O)Nc6ccc(F)cc6)CC5)cc4)ccnc3c2)cn1` [Compound 79, 1-N′-(4-Fluorophenyl)-1-N-[4-[7-(1-methylsulfonylpyrazol-4-yl)quinolin-4-yl]oxyphenyl]cyclopropane-1,1-dicarboxamide], for which the IC50 is at most 10 nM in experiment [1] and 10 to 100 nM in experiment [2].

In the case of `COCCn1cc(-c2ccc3c(Oc4ccc(NC(=O)C5(C(=O)Nc6ccc(F)cc6)CC5)cc4)ccnc3c2)cn1` [Compound 10, 1-N′-(4-Fluorophenyl)-1-N-[4-[7-[1-(2-methoxyethyl)pyrazol-4-yl]quinolin-4-yl]oxyphenyl]cyclopropane-1,1-dicarboxamide], the IC50 in experiment [1] was at most 10 nM; in experiment [2] it was 10 to 100 nM.

On to `C#Cc1ccc2c(Oc3ccc(NC(=O)C4(C(=O)Nc5ccc(F)cc5)CC4)cc3)ccnc2c1` [Compound 64, 1-N-[4-(7-Ethynylquinolin-4-yl)oxyphenyl]-1-N′-(4-fluorophenyl)cyclopropane-1,1-dicarboxamide], for which the values for the IC50 in experiment [1] and in experiment [2] were above 300 nM and 10 to 100 nM, respectively.

Take `O=C(Nc1ccc(F)cc1)C1(C(=O)Nc2ccc(Oc3ccnc4cc(-c5nnco5)ccc34)cc2)CC1` [Compound 73, 1-N′-(4-Fluorophenyl)-1-N-[4-[7-(1,3,4-oxadiazol-2-yl)quinolin-4-yl]oxyphenyl]cyclopropane-1,1-dicarboxamide]: the IC50 in experiment [1] and in experiment [2] was 10 to 100 nM throughout.

In the case of `O=C(Nc1ccc(F)cc1)C1(C(=O)Nc2ccc(Oc3ccnc4cc(-c5cnn(C(F)F)c5)ccc34)cc2)CC1` [Compound 13, 1-N-[4-[7-[1-(Difluoromethyl)pyrazol-4-yl]quinolin-4-yl]oxyphenyl]-1-N′-(4-fluorophenyl)cyclopropane-1,1-dicarboxamide], the IC50 in experiment [1] is at most 10 nM; in experiment [2] it was 10 to 100 nM.

Usually IC50 stands for the concentration needed to halve the response being measured.
